Experimental data from the NIST ThermoML archive (doi:10.1016/j.jct.2014.03.021).
Numbers after ± are expanded uncertainties.

Assay: refractive index (Na D-line) (dimensionless); xn = mol fraction of the nth substance listed
Conditions: 101 kPa, Liquid, Standard Abbe refractometry

C[C@H](O)C(=O)[O-].C[N+](C)(C)CCO + O
refractive index (293.15 K, x1 = 0.0258): 1.36903 ± 0.00047
refractive index (293.15 K, x1 = 0.0511): 1.39091 ± 0.00048
refractive index (293.15 K, x1 = 0.074): 1.41121 ± 0.0004
refractive index (293.15 K, x1 = 0.1027): 1.41982 ± 0.00035
refractive index (293.15 K, x1 = 0.1965): 1.43901 ± 0.00039
refractive index (293.15 K, x1 = 0.2957): 1.45194 ± 0.00045
refractive index (293.15 K, x1 = 0.416): 1.46075 ± 0.00054
refractive index (293.15 K, x1 = 0.5184): 1.46916 ± 0.00062
refractive index (293.15 K, x1 = 0.5347): 1.46974 ± 0.00064
refractive index (293.15 K, x1 = 0.6044): 1.47013 ± 0.00069
refractive index (293.15 K, x1 = 0.6931): 1.47355 ± 0.00077
refractive index (293.15 K, x1 = 0.7801): 1.47251 ± 0.00085
refractive index (293.15 K, x1 = 0.8279): 1.47481 ± 0.00089
refractive index (293.15 K, x1 = 0.8996): 1.48014 ± 0.00096
refractive index (298.15 K, x1 = 0.0258): 1.36828 ± 0.00047
refractive index (298.15 K, x1 = 0.0511): 1.38998 ± 0.00047
refractive index (298.15 K, x1 = 0.074): 1.4101 ± 0.00039
refractive index (298.15 K, x1 = 0.1027): 1.41868 ± 0.00035
refractive index (298.15 K, x1 = 0.1965): 1.43773 ± 0.00039
refractive index (298.15 K, x1 = 0.2957): 1.45066 ± 0.00045
refractive index (298.15 K, x1 = 0.416): 1.4594 ± 0.00054
refractive index (298.15 K, x1 = 0.5184): 1.46786 ± 0.00062
refractive index (298.15 K, x1 = 0.5347): 1.46843 ± 0.00064
refractive index (298.15 K, x1 = 0.6044): 1.46887 ± 0.00069
refractive index (298.15 K, x1 = 0.6931): 1.4723 ± 0.00077
refractive index (298.15 K, x1 = 0.7801): 1.47121 ± 0.00085
refractive index (298.15 K, x1 = 0.8279): 1.47368 ± 0.00089
refractive index (298.15 K, x1 = 0.8996): 1.47898 ± 0.00096
refractive index (303.15 K, x1 = 0.0258): 1.36748 ± 0.00046
refractive index (303.15 K, x1 = 0.0511): 1.38899 ± 0.00047
refractive index (303.15 K, x1 = 0.074): 1.40897 ± 0.00039
refractive index (303.15 K, x1 = 0.1027): 1.41749 ± 0.00035
refractive index (303.15 K, x1 = 0.1965): 1.43645 ± 0.00039
refractive index (303.15 K, x1 = 0.2957): 1.44934 ± 0.00045
refractive index (303.15 K, x1 = 0.416): 1.45817 ± 0.00054
refractive index (303.15 K, x1 = 0.5184): 1.46656 ± 0.00062
refractive index (303.15 K, x1 = 0.5347): 1.46709 ± 0.00063
refractive index (303.15 K, x1 = 0.6044): 1.46754 ± 0.00069
refractive index (303.15 K, x1 = 0.6931): 1.47098 ± 0.00077
refractive index (303.15 K, x1 = 0.7801): 1.47001 ± 0.00085
refractive index (303.15 K, x1 = 0.8279): 1.47226 ± 0.00089
refractive index (303.15 K, x1 = 0.8996): 1.47758 ± 0.00096
refractive index (308.15 K, x1 = 0.0258): 1.36732 ± 0.00046
refractive index (308.15 K, x1 = 0.0511): 1.38799 ± 0.00047
refractive index (308.15 K, x1 = 0.074): 1.4078 ± 0.00039
refractive index (308.15 K, x1 = 0.1027): 1.4163 ± 0.00035
refractive index (308.15 K, x1 = 0.1965): 1.43516 ± 0.00039
refractive index (308.15 K, x1 = 0.2957): 1.448 ± 0.00045
refractive index (308.15 K, x1 = 0.416): 1.45679 ± 0.00054
refractive index (308.15 K, x1 = 0.5184): 1.46532 ± 0.00062
refractive index (308.15 K, x1 = 0.5347): 1.46577 ± 0.00063
refractive index (308.15 K, x1 = 0.6044): 1.4662 ± 0.00069
refractive index (308.15 K, x1 = 0.6931): 1.46966 ± 0.00077
refractive index (308.15 K, x1 = 0.7801): 1.46842 ± 0.00085
refractive index (308.15 K, x1 = 0.8279): 1.47073 ± 0.00089
refractive index (308.15 K, x1 = 0.8996): 1.47607 ± 0.00096
refractive index (313.15 K, x1 = 0.0258): 1.36664 ± 0.00045
refractive index (313.15 K, x1 = 0.0511): 1.38719 ± 0.00046
refractive index (313.15 K, x1 = 0.074): 1.40673 ± 0.00039
refractive index (313.15 K, x1 = 0.1027): 1.4151 ± 0.00035
refractive index (313.15 K, x1 = 0.1965): 1.43386 ± 0.00039
refractive index (313.15 K, x1 = 0.2957): 1.44669 ± 0.00045
refractive index (313.15 K, x1 = 0.416): 1.45543 ± 0.00054
refractive index (313.15 K, x1 = 0.5184): 1.46399 ± 0.00062
refractive index (313.15 K, x1 = 0.5347): 1.46444 ± 0.00063
refractive index (313.15 K, x1 = 0.6044): 1.46489 ± 0.00069
refractive index (313.15 K, x1 = 0.6931): 1.46835 ± 0.00077
refractive index (313.15 K, x1 = 0.7801): 1.46703 ± 0.00085
refractive index (313.15 K, x1 = 0.8279): 1.46931 ± 0.00089
refractive index (313.15 K, x1 = 0.8996): 1.47467 ± 0.00096
refractive index (318.15 K, x1 = 0.0258): 1.36649 ± 0.00045
refractive index (318.15 K, x1 = 0.0511): 1.38658 ± 0.00046
refractive index (318.15 K, x1 = 0.074): 1.40601 ± 0.00039
refractive index (318.15 K, x1 = 0.1027): 1.41389 ± 0.00035
refractive index (318.15 K, x1 = 0.1965): 1.43253 ± 0.00039
refractive index (318.15 K, x1 = 0.2957): 1.44535 ± 0.00045
refractive index (318.15 K, x1 = 0.416): 1.45415 ± 0.00054
refractive index (318.15 K, x1 = 0.5184): 1.46255 ± 0.00062
refractive index (318.15 K, x1 = 0.5347): 1.46311 ± 0.00064
refractive index (318.15 K, x1 = 0.6044): 1.46346 ± 0.00069
refractive index (318.15 K, x1 = 0.6931): 1.46704 ± 0.00077
refractive index (318.15 K, x1 = 0.7801): 1.46554 ± 0.00085
refractive index (318.15 K, x1 = 0.8279): 1.46789 ± 0.00089
refractive index (318.15 K, x1 = 0.8996): 1.47331 ± 0.00096
refractive index (323.15 K, x1 = 0.0258): 1.36665 ± 0.00046
refractive index (323.15 K, x1 = 0.0511): 1.38756 ± 0.00046
refractive index (323.15 K, x1 = 0.074): 1.40547 ± 0.00039
refractive index (323.15 K, x1 = 0.1027): 1.41332 ± 0.00035
refractive index (323.15 K, x1 = 0.1965): 1.43117 ± 0.00039
refractive index (323.15 K, x1 = 0.2957): 1.44401 ± 0.00045
refractive index (323.15 K, x1 = 0.416): 1.45266 ± 0.00054
refractive index (323.15 K, x1 = 0.5184): 1.46151 ± 0.00062
refractive index (323.15 K, x1 = 0.5347): 1.4618 ± 0.00063
refractive index (323.15 K, x1 = 0.6044): 1.46206 ± 0.00069
refractive index (323.15 K, x1 = 0.6931): 1.46574 ± 0.00077
refractive index (323.15 K, x1 = 0.7801): 1.46388 ± 0.00085
refractive index (323.15 K, x1 = 0.8279): 1.46631 ± 0.00089
refractive index (323.15 K, x1 = 0.8996): 1.47199 ± 0.00096
